Earlier results, collected in patent EP3315966A1, “STANDARD THYROID GLAND HORMONE SOLUTION” (Fujirebio Inc., priority 2015, dated 2017).

Conditions: buffer substance of the standard solution

pKa: 10.4
SMILES: O=S(=O)(O)CCCNC1CCCCC1 [CAPS, N-cyclohexyl-3-aminopropanesulfonic acid]
